Results reported in patent US20140088066A1, “PLATINUM COMPOUNDS, COMPOSITIONS AND METHODS FOR THE TREATMENT OF CANCER” (Blend Therapeutics, priority 2012, published 2014).
Read-outs that look alike come from different tables or passages of the source.

What was measured:
physchem [1] = experiment: physchem
physchem [2] = experiment: physchem; remark: listed apart in the source
Protocol: Nanoparticle formulation of compound of Formula XVI. […] (cold) or at 20-25° C. (warm) and stored refrigerated or frozen with 10% sucrose.

Row | aqueous solubility (Aqueous solubility) | Molecule | solubility (physchem [1]) | saturated solubility in ethyl acetate (EA) (physchem [2]) | solubility (physchem [2]; organic solvent or mixture)
1 | – | CCCCCCCCCCCCCCCCCC(=O)[O][Pt]([NH2])([NH2])[n+]1cc2ccccc2c2ccccc21 [Compound 27, phenantriplatin (stearate) nitrate] | < 100 µg/mL | low | 1500 µg/mL
2 | 5000 µg/mL | phenanthriplatin [phenantriplatin] | – | – | –
